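Method: 48-hour compound exposure of cells in 96-well plates, five concentrations, linear interpolation of endpoints. TGI marks complete inhibition of growth.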
What was measured:
Assay in all cases: NCI-60 cell line screen, 48 h
[1] = test system: HOP-62 NSCLC
[2] = test system: SK-OV-3 ovarian
[3] = test system: OVCAR-8 ovarian
[4] = test system: NCI-H226 lung
[5] = test system: TK-10 renal
[6] = test system: HL-60(TB) leukemia
[7] = test system: IGROV1 ovarian
[8] = test system: HCT-116 colon
[9] = test system: MOLT-4 leukemia
[10] = test system: NCI/ADR-RES ovarian
[11] = test system: EKVX NSCLC
[12] = test system: LOX IMVI melanoma
[13] = test system: NCI-H460 lung
[14] = test system: ACHN renal

Compound	TGI [1] [µM]	TGI [2] [µM]	TGI [3] [µM]	TGI [4] [µM]	TGI [5] [µM]	TGI [6] [µM]	TGI [7] [µM]	TGI [8] [µM]	TGI [9] [µM]	TGI [10] [µM]	TGI [11] [µM]	TGI [12] [µM]	TGI [13] [µM]	TGI [14] [µM]
Cc1cn(C2CCN(CC3COC(C)(C)O3)O2)c(=O)[nH]c1=O (configuration not stated)	> 100	> 100	> 100	> 100	> 100	> 100	> 100	> 100	> 100	> 100	> 100	> 100	> 100	> 100
CN1CC2=C(NC(=S)NC2c2ccccc2Cl)/C(=C/c2ccccc2Cl)C1 (configuration not stated)	> 100	> 100	> 100	> 100	> 100	62.6	> 100	> 100	75.5	> 100	> 100	> 100	> 100	> 100
O=[N+]([O-])/C(Cl)=C/C(=C1/Nc2ccccc2O1)[N+](=O)[O-]	76.6	75.7	40.5	79.3	> 100	37.7	> 100	28.6	87.2	73.2	40.5	23.1	81	37.5
CC(C)Cn1cnc2c(Cl)nc3ccccc3c21	> 100	> 100	> 100	> 100	> 100	62.9	> 100	> 100	> 100	> 100	> 100	> 100	> 100	> 100
O=[N+]([O-])C(/C=C(\Cl)[N+](=O)[O-])=C(N1CCCCC1)N1CCCCC1	> 100	> 100	> 100	> 100	> 100	41.7	61.1	62.4	> 100	> 100	> 100	> 100	> 100	> 100
Cc1cc2c(cc1Cl)SC(NNC1=NCCN1)=NS2(=O)=O	> 10	> 10	> 10	> 10	> 10	> 10	> 10	> 10	> 10	> 10	> 10	> 10	> 10	> 10
C=CC1(c2ccc3ccccc3c2)OCC(CC)O1 (configuration not stated)	2.48	> 100	> 100	81.4	> 100	23.3	> 100	> 100	87.9	> 100	> 100	44.3	> 100	> 100
C(#CC1(Nc2ccccc2)CCN(Cc2ccccc2)CC1)C1(Nc2ccccc2)CCN(Cc2ccccc2)CC1	40.7	13.1	53.5	> 56.2	39.4	11.7	> 46.4	54.2	32.7	> 100	> 46.4	38.7	> 46.4	> 56.2
O=C1CC2CC(CC3(CO3)C2)C1F (configuration not stated)	> 100	> 100	> 100	> 100	> 100	> 100	> 100	> 100	> 100	> 100	> 100	> 100	> 100	> 100
CC1(C)CCCCCCCCCC2CC2CCC(C)(C)C1=O (configuration not stated)	46	> 100	74.5	31.2	46	49.1	> 100	31.8	80.1	44.3	39.3	34.9	46	33.4
CCCC(=O)OC[n+]1ccc(-c2c(COC(=O)NC(C)C)c(COC(=O)NC(C)C)c3n2CCC3)cc1	> 100	> 100	> 100	> 100	> 100	> 100	> 100	> 100	> 100	> 100	> 100	> 100	> 100	> 100
O=C1[C@@H](O)[C@@H]2CCCC[C@@]23CCCN13	> 100	> 100	> 100	> 100	> 100	> 100	> 100	> 100	> 100	> 100	> 100	> 100	> 100	> 100
C#CCOCn1cc(C)c(=O)[nH]c1=O	> 100	> 100	> 100	> 100	> 100	> 100	> 100	> 100	> 100	> 100	> 100	> 100	> 100	> 100
CC(=O)NC1COC(COC(=O)CCCCCCCCCCNC(=O)c2ccc([N+](=O)[O-])c3c(=O)c4ccccc4[nH]c23)C(O)C1OC(C)C(=O)NC(C(=O)NC(CCC(N)=O)C(=O)OCc1ccccc1)C(C)C (configuration not stated)	24.4	78.8	44.1	85.5	54.4	6.72	18.3	42.7	61.3	> 94.5	27.8	30.1	39.7	39.4
CC(=O)n1[nH]c(=O)n(-c2ccccc2)c1=O	> 100	> 100	> 100	> 100	> 100	> 100	> 100	> 100	> 100	> 100	> 100	> 100	> 100	> 100
Cc1cccc(C)c1N=Nc1ccc(O)c(CN(C)C)c1	> 100	> 100	> 100	> 100	> 100	> 100	> 100	> 100	> 100	> 100	> 100	> 100	> 100	> 100
CC(C)(C)n1c(=O)n2n(c1=O)C1c3cccc4cccc(c34)C2C2c3cccc4cccc(c34)C1n1c(=O)n(C(C)(C)C)c(=O)n12	> 100	> 100	> 100	> 100	> 100	> 100	> 100	> 100	> 100	> 100	> 100	> 100	> 100	> 100
O=C1/C(=C/c2ccc(O)c(O)c2)CC/C1=C\c1ccc(O)c(O)c1	39	> 60.2	> 87.2	25.8	> 100	> 46.2	> 58.5	> 47.8	> 36.8	> 100	> 75.3	> 56.1	> 100	26.6
